Read-outs that look alike come from different tables or passages of the source.
Experiments:
[1] = test system: C. reinhardtii (Nit1-305,cw-15); assay: Transformation of algal cells with plasmid DNA and CPP, selection on Zeocin plates; assay type: cell-based, Chlamydomonas reinhardtii
Method: Transformation experiments were conducted. […] Cell culture was grown in 900 ml of SGII+NH4NO3 medium, divided in 3 aliquots into 500 ml Erlenmeyer flasks each containing 300 ml of the culture. The culture was grown for two days until the cell growth reached mid-log phase and cell density reached to 1×10^6 cells ml^−1 (OD at 680 nm=0.6-0.8). Cells were collected at 3000 rpm for 10 minutes to obtain 9×10^8 cells in total. In all transformation experiments for Chlamydomonas reinhardtii, SGII+NH4NO3 medium was used in downstream experimental steps. […] Cells were washed after grown in SGII-NH4NO3 medium to remove NH4 traces. Cells were divided into 3 aliquots each of 3×10^8 cells. Two aliquots of the harvested cells were treated with cell wall degrading enzymes one with cellulase from Aspergillus niger (Sigma, Canada) and the other with lysozyme from chicken egg white (Sigma, Canada).
Lysozyme treatment: Lysozyme from chicken white egg was purchased (Sigma-Aldrich, Canada). Enzymatic assay protocol was modified from Sigma-Aldrich product information publication. For cell lysis/cell wall disruption, use a freshly prepared lysozyme solution (10 mg/ml) in sterilized 10 mM Tris-HCL, pH 8.0. Add 25 μl of a freshly prepared lysozyme to the required number (−5.0×10^7) of cells/transformation reaction, mix by vortexing for 3 seconds. Incubate the lysis mixture for 15 minutes at 37° C. […] Centrifuge the cells and discard the supernatant containing lysozyme. To stop the reaction, wash the cells twice with media and collect the cells at 3000 rpm for 10 minutes. Proceed to downstream applications and/or transformation experiment.
Cellulase treatment: Cellulase (EC 3.2.1.4) was purchased from Sigma-Aldrich, Canada. Enzymatic assay protocol was modified from Sigma-Aldrich product information publication. Just before use, prepare solution containing 8 units/ml (26.7 mg/ml) of cellulase in sterilized cold distilled water. Add 500 μl of a freshly prepared cellulase solution to the required number (−5.0×10^7) of cells, immediately mix by swirling. Incubate the lysis mixture for 15 minutes at 37° C. […] Centrifuge the cells and discard the supernatant containing lysozyme. To stop the reaction, wash the cells twice and collect the cells at 3000 rpm for 10 minutes. Proceed to downstream applications and/or transformation experiment.
The third aliquot was not treated with any enzyme.
After enzymatic treatments, the cells were washed twice with the medium to stop the reaction. Cells of each aliquot were re-suspended in fresh medium (cell concentration=3×10^8ml^−1) and used 300 μl of cell suspension (−5×10^7 number of cell) in each transformation reaction. Cells were transferred to 15 ml Falcon tube containing sterilized 300 mg glass beads of 0.5 mm size. Just prior to starting the next step, 1 μg plasmid DNA and one of the four ATT(s) tested were mixed. One of the four ATT-plasmid mixtures were added to the algal cells and beads suspended in media. The cells, ATT and DNA mixture and the beads were vortexed for 15 seconds. 10 ml of medium was added to the transformation reaction, and the tubes were incubated overnight with shaking at 100 rpm in incubator to allow cell recovery and expression of the gene. The cell suspensions were transferred to fresh tubes to remove beads and cells were spun by centrifugation for 5 minutes at 3000 rpm. The cells were re-suspended in 2 ml of 0.5% agar medium by gentle pipetting and were plated on 2% agar medium supplemented with 10 μg ml^−1 Zeocin.

[2] = test system: linearized plasmid DNA; assay: Gel mobility shift assay of peptide plasmid DNA complex formation; conditions: 200 ng linearized plasmid DNA, 1% agarose gel
Method: Non-covalent attachment was tested using a gel mobility shift assay. The gel mobility shift assay was used to determine the minimum peptide concentration needed bind to plasmid DNA and cause it to shift during electrophoresis. Based on a peptide-DNA charge ratio calculation increasing concentrations of peptide were added to 200 ng of linearized plasmid DNA until the charge of the DNA was neutralized by the peptide causing a mobility shift in the DNA during electrophoresis in a 1% agarose gel.

[3] = test system: C. reinhardtii (Nit1-305,cw-15); assay: PCR screening of transformant colonies (Zeocin specific primers); assay type: cell-based, Chlamydomonas reinhardtii; conditions: pSP124S linearized with KpnI, no pretreatment; 155 bp expected product (FIG. 11 panel A)
Method: Transformed colonies were picked from the selection plates and inoculated into liquid selection media to multiply cells to be used for genomic DNA isolation. Genomic DNA from 1×10^5 cells of untransformed algae and the transformants were isolated using DNeasy™ Blood & Tissue Kit (QIAGEN®). ReadyMix™ Taq PCR Reaction Mix with MgCl2 (Sigma, Canada) was used to prepare 20 μl PCR reactions. Thermal cycling conditions were initial denaturation at 95° C. for 5 minutes and 40 cycles of 95° C. for 30 s, 65° C. for 30 s and 72° C. for 1.5 min. A final primer extension cycle was performed at 72° C. for 10 min.

[4] = pSP124S linearized with EcoRI, 0.5 mm bead disruption, Zeocin 10 μg/ml (FIG. 9)
[5] = pSP124S linearized with KpnI, 0.5 mm bead disruption, Zeocin 10 μg/ml (FIG. 8)

Substance | transformed colonies on selection plate [1, 4] | transformed colonies on selection plate [1, 5] | amount of peptide at which the shift occurred [2] [ng] | PCR product with Zeocin specific primers in transformant colonies [3] | transformation rate compared with the other three peptides [1] | transformed colonies on selection plate [1]
(Arg)9 (RRRRRRRRR) [ATT4] | transformed | transformed | 120 | – | – | –
Tat (48-57) (GRKKRRQRRR) [ATT2] | transformed | transformed | 80 | Lane 7 and 8 are positive | – | –
Transportan [ATT1] | – | – | 339 | Lane 1 is positive | higher | transformed
